According to US12448372B2, “Class of triaromatic compounds targeting bifunctional phosphorylation site of STAT3 and applications thereof” (SHANGHAI YUYAO BIOTECH LTD., priority 2019, dated 2025):
Entries after “also recorded” stand apart in the source; their conditions may differ. Read-outs that look alike come from different tables or passages of the source.

What was measured:
STAT3 SH2 domain = STAT3 SH2 domain (Homo sapiens, UniProt P40763); test: Microscale thermophoresis binding to STAT3 SH2 domain; settings: MST, FIG. 5A; read-out: affinity for the STAT3 SH2 domain
Description: The microscale thermophoresis (MST) technique is a simple, rapid, and accurate method for quantifying biomolecular interactions. It can measure the movement of molecules in a microscopic temperature gradient field, as well as detect changes of molecular hydration shell, charge and size. When the Nanotemper microscale thermophoresis instrument locally heated by a infrared laser, molecules will move in a directional manner, then the molecular distribution ratio in the temperature gradient field are analyzed by a fluorescence to detect whether a small molecule compound binds to a target protein. The experimental operation is as follows: firstly, compounds to be tested are diluted in a gradient using MST test buffer, total 16 concentrations being configured; subsequently, the purified STAT3 recombinant protein is labeled using the HIS tag labeling kit, and the final concentration of the labeled protein is 100-200 nM; the labeled STAT3 proteins are well mixed with the diluted compounds and incubated and protected from light for 30 minutes; finally the samples were loaded by capillary tube and detected on the instrument. The binding constants (K^D) of small molecules to STAT3 protein were analyzed by Mo. analysis software.
(1) Microscale Thermophoresis Experiment
The method is as described in Example 40.

MGC803 = test: Cell proliferation by MTS method, MGC803; assay type: cell-based; settings: Homo sapiens, MGC-803, gastric Cancer
Description: (§1) (2) Detection of Cell Proliferation by MTS Method
(§2) The MTS assay is a method for indirectly determining the number of living cells via colourimetric method. MTS is a newly synthesised tetrazole compound that reflects cell viability, which can be reduced by succinate dehydrogenase in the mitochondria of living cells to an orange-coloured formazan with an absorbance of the reduced product measured at 490 nm being in proportion to the number of living cells, thus reflecting the cell viability. This assay can be used to evaluate the effect of the compound on the proliferation of pancreatic cancer cells, thereby determining the inhibitory effect of the compound on the proliferation of pancreatic cancer cells and to calculate the IC^50. Each cells were inoculated uniformly into a 96-well plate at a density of 1-20×10^3 cells/well, 100 μL per well, and placed in a constant temperature incubator until the cells adhered to the wall. […] Under light-proof conditions, MTS was added and well mixed, the mixture was placed in a constant temperature incubator at 37° C., and the light absorption value were measured using an enzyme marker at 490 nm and the experiment was repeated for three times, IC50 was calculated with GraphPad5 Prism software.

HCT-116 = test: Cell proliferation by MTS method, HCT-116; assay type: cell-based; settings: Homo sapiens, Colon Cancer
Description: as §1, §2

BGC823 = test: Cell proliferation by MTS method, BGC823; assay type: cell-based; settings: Homo sapiens, BGC-823, gastric Cancer
Description: as §1, §2

SW1990 = test: Cell proliferation by MTS method, SW1990; assay type: cell-based; settings: Homo sapiens, Pancreatic Cancer
Description: as §1, §2

HCC827 = test: Cell proliferation by MTS method, HCC827; assay type: cell-based; settings: Homo sapiens
In short: (§3)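 Cells seeded at 1-20×10^3 cells/well and allowed to adhere, then exposed to graded compound concentrations for 24-96 h. MTS added and incubated at 37° C in the dark, absorbance read at 490 nm. Three repeats; IC50 from concentration-response.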

Capan-2 = test: Cell proliferation by MTS method, Capan-2; assay type: cell-based; settings: Homo sapiens
In short: as §3

H460 = test: Cell proliferation by MTS method, H460; assay type: cell-based; settings: Homo sapiens, NCI-H460, Lung Cancer
Description: as §1, §2

STAT3 protein = STAT3 protein (Homo sapiens, UniProt P40763); test: Binding activity to STAT3 protein by microscale thermophoresis (MST); settings: purified STAT3 recombinant protein
In short: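 His-tag-labelled purified recombinant STAT3 (final 100–200 nM) was mixed with compounds at 16 concentrations in MST buffer and incubated 30 min protected from light. Thermophoresis read in capillaries gave KD values.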

SK-hep1 = test: Cell proliferation by MTS method, SK-hep1; assay type: cell-based; settings: Homo sapiens, Liver Cancer
Description: as §1, §2

[1] = test system: a variety of tumour cells; test: Cell proliferation by MTS method, summary over a variety of tumour cells; assay type: cell-based; settings: summary over different types of cancer cells; read-out: half effective proliferation inhibition concentration (IC50) against a variety of tumour cells
Description: as §1, §2

LNCAP = test: Cell proliferation by MTS method, LNCAP; assay type: cell-based; settings: Homo sapiens, Prostate Cancer
Description: as §1, §2

Huh7 = test: Cell proliferation by MTS method, Huh7; assay type: cell-based; settings: Homo sapiens, Huh-7
In short: as §3

PANC-1 = test: Cell proliferation by MTS method, PANC-1; assay type: cell-based; settings: Homo sapiens, Pancreatic Cancer
Description: as §1, §2

[2] = test system: human pancreatic cancer cells MIAPACA-2; test: Subcutaneous tumor-bearing experiment in nude mice, MIAPACA-2
Description: (1) Subcutaneous Tumor-Bearing Experiment in Nude Mice
Subcutaneous tumor-bearing experiment, i. e. tumour cells were injected subcutaneously into nude mice, and the tumour cells absorbed nutrients from the mice and rapidly proliferated to form tumours.
Tumour volume and mouse weight were measured every four days, and tumour volume was calculated according to the formula of volume=length×width^2×0.52. After 3 weeks post-administration, mice were sacrificed and subcutaneous tumours were peeled off, weighed and photographed.

MKN45 = test: Cell proliferation by MTS method, MKN45; assay type: cell-based; settings: Homo sapiens, MKN-45
In short: as §3

HCT8 = test: Cell proliferation by MTS method, HCT8; assay type: cell-based; settings: Homo sapiens, HCT-8, Colon Cancer
Description: as §1, §2

[3] = Acute toxicological experiments, survival of normal mice; settings: dose of 80 mg/kg, FIG. 5E
[4] = test system: Human pancreatic cancer cells (ASPC-1); test: In situ growth metastasis model of pancreatic cancer, ASPC-1 in nude mice; assay type: in vivo; settings: in situ growth metastasis model (ASPC-1), nude mice, 5, 10, 20 mg/kg by gavage once a day, FIG. 4D
Description: (2) In situ growth metastasis model of pancreatic cancer. Human pancreatic cancer cells (ASPC-1) were used to bear tumors in the pancreas of age-appropriate nude mice, 6 or more mice in each group. One week after injection of tumour cells, all mice were randomly divided to the control group, WB737-5 mg/kg low dose group, 10 mg/kg medium dose group, 20 mg/kg high dose group and positive compound group. Different doses of WB737 or the positive compound were administered by gavage, and mice of control group were administered the same dose of solvent orally […], dosing once a day. During the experiment, the time and number of mice died due to pancreatic cancer metastasis were counted, and the results of the experiment were counted and survival curves were plotted.

HT29 = test: Cell proliferation by MTS method, HT29; assay type: cell-based; settings: Homo sapiens, HT-29, Colon Cancer
Description: as §1, §2

[5] = test system: STAT3-Tyr705 and Ser727 in pancreatic cancer cells; test: Western blot of STAT3 phosphorylation in pancreatic cancer cells; assay type: cell-based; settings: 12-24 h, FIG. 1A
Description: Finally, the expression levels of protein were detected by Odyssey scanner.

Sequence of STAT3 protein (P40763 whole entry): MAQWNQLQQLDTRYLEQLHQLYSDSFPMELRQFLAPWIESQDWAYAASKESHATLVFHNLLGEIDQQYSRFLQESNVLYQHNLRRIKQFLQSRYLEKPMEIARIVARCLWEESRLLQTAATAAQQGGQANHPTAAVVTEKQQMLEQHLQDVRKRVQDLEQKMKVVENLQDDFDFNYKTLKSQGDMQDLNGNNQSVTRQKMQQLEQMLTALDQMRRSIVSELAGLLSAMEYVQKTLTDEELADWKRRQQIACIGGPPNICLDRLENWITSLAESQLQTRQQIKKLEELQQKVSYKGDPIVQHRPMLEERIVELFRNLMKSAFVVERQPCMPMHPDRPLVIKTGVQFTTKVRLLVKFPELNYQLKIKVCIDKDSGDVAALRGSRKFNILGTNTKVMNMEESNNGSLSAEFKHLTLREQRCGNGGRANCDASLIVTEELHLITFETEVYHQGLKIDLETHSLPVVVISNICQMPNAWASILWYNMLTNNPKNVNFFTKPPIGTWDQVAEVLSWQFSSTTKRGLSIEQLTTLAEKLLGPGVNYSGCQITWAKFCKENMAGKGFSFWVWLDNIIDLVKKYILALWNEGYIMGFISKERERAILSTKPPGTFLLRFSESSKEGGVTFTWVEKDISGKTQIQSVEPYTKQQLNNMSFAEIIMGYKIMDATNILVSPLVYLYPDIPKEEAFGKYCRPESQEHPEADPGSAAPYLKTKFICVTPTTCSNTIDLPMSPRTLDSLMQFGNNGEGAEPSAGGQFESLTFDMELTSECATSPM
Sequence of STAT3 SH2 domain (P40763 580-670 limits assumed): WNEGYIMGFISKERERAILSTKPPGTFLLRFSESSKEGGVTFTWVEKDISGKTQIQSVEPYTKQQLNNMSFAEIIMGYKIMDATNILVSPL

## Cn1c(C(=O)N2CCN(Cc3ccc(OCC(F)(F)F)cc3)CC2)cc2ccc(Oc3cnc(-c4nc(-c5ccc(C(F)(F)F)cc5)no4)cn3)cc21 [Example 6, (6-((5-(3-(4-(trifluoromethyl)phenyl)-1,2,4-oxadiazol-5-yl)pyrazin-2-yl)oxy)1-methyl-1H-indol-2-yl)(4-(4-(2,2,2-trifluoroethoxy)benzyl)piperazin-1-yl)methanone]
STAT3 SH2 domain
  Kd: 2.25 nM
MGC803
  IC50: 3.6 nM
HCT-116
  IC50: 11.3 nM
BGC823
  IC50: 6.1 ± 0.9 nM
SW1990
  IC50: 1.3 nM
HCC827; Lung Cancer, HCC827, read-out: IC50
  IC50: 0.5 nM
HCC827; Table 1, HCC827, read-out: Tumour cell proliferative activity/IC50(nM) Lung Cancer HCC827
  IC50: < 10 nM
Capan-2; Pancreatic Cancer, Capan-2, read-out: IC50
  IC50: 9.4 nM
Capan-2; Table 1, Capan-2, read-out: Tumour cell proliferative activity/IC50(nM) Pancreatic Cancer Capan-2
  IC50: < 10 nM
H460
  IC50: 4.6 nM
STAT3 protein
  Kd: < 10 nM
SK-hep1
  IC50: 18.6 nM
[1]
  IC50: 0.5 to 32 nM
LNCAP
  IC50: 10.3 nM
Huh7; Liver Cancer, Huh7, read-out: IC50
  IC50: 8.6 nM
Huh7; Table 1, Huh7, read-out: Tumour cell proliferative activity/IC50(nM) Liver Cancer Huh7
  IC50: < 10 nM
PANC-1
  IC50: 8.1 nM
[2]; MIAPACA-2 subcutaneous model, gavage, WB737 5-20 mg/kg, IACS-010759 10 mg/kg, FIG. 3D/5D
  effect on the body weight of mice: no significant effect on the body weight of mice; also recorded: good tolerability
[2]; MIAPACA-2 subcutaneous, BALB/c-nude mice, 5, 10, 20 mg/kg by gavage, 3 weeks, FIG. 3
  tumor growth (tumor volume and tumor weight): significantly inhibits the growth of pancreatic tumour
MKN45; Table 1, MKN45, read-out: Tumour cell proliferative activity/IC50(nM) gastric Cancer MKN45
  IC50: < 10 nM
MKN45; gastric Cancer, MKN45, read-out: IC50
  IC50: 1.6 nM
HCT8
  IC50: 20.9 nM
[3]
  mortality of normal mice: no mice died
[4]
  survival of mice: significantly prolongs the survival of mice
HT29
  IC50: 31.6 nM
[5]
  concentration that completely inhibits the expression of STAT3-Tyr705 and Ser727: lower than 50 nM
